From ChEMBL document CHEMBL1201862, “PubChem BioAssay data set” (2004)
Activity calls are given as the source filed them.

Legend:
[1] = MIN6 cell viability loss – mouse insulinoma, cytotoxicity control, dose response (AID 2122); type: functional;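 note: confirmatory high-throughput counterscreen run to flag cytotoxic compounds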
[2] = loss of viability in HepG2 cells – cell-based, CellTiter-Glo, cherry-picked, cytotoxicity control for Shn3 inhibitor project, dose response (AID 624134); type: functional
[3] = non-specific 3'UTR reporter inhibition in Clone20-Shn3RL – cell-based, Renilla luciferase, cherry-picked, counter-screen for Shn3 inhibitor project, dose response (AID 624133); type: functional
A-375 [4] = assay: proliferation inhibition in MITF-low A375 cells – cell-based, cherry-pick samples, set 2, counter-screen for MITF modulator project, dose response (AID 540335); type: functional; conditions: Homo sapiens
[5] = decrease of insulin promoter-GFP reporter – imaging, high-content screening, mouse beta cells (AID 1628); type: functional; conditions: MIN6
[6] = viability of HCT116 lacking mutant beta-catenin – cell-based, human colon tumor, dose response (AID 1045); type: functional;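 note: HCT116 colon tumor cells with beta catenin knocked out; cells exposed to compound for 60 hours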
[7] = viability of PTEN-deleted HCT116 cells – cell-based, HCT116 PTEN knockout, dose response (AID 1047); type: functional;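 note: HCT116 colon tumor cells with PTEN knocked out; cells exposed to compound for 60 hours before readout; potency for loss of cell viability measured by luminescence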
[8] = biological target: T1, Microphthalmia-associated transcription factor (Homo sapiens, UniProt O75030); assay: reducers of TRPM1 reporter luminescence, concentration series – cell-based, SK-MEL-5, cherry-picked, set 3, MITF inhibitor project, dose response (AID 493073); type: functional;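 note: SK-MEL-5 melanoma cells with luciferase driven by the MITF target TRPM1 promoter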
T1 sequence (O75030 whole entry): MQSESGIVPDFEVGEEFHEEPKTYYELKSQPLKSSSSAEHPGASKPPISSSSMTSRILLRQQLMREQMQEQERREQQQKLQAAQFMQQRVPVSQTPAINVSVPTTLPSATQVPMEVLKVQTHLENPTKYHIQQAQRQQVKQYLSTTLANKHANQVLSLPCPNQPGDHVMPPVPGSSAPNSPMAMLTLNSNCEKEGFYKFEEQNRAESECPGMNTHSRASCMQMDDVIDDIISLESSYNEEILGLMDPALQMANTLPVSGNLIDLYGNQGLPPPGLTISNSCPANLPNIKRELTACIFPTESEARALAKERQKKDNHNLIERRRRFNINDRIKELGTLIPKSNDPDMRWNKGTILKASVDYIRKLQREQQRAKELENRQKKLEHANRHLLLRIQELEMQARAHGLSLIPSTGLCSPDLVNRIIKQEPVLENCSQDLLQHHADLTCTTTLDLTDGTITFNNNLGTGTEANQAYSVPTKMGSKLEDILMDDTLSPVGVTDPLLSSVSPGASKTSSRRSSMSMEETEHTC

[9] = reduction of Shn3 3'UTR-driven luciferase in osteoblasts – cell-based, Clone20 osteoblasts, firefly luciferase, cherry-picked, dose response (AID 624132); type: functional;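 note: firefly luciferase luminescence from reporter carrying the Shn3 3'UTR in osteoblasts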
[10] = Trypanosoma cruzi growth suppression in host cells – NIH3T3 host cells, beta-gal luminescence, confirmation (AID 2044); type: functional, cell-based;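 note: intracellular parasites grown in NIH/3T3 mouse fibroblasts as host cells; luminescent beta-galactosidase reporter signal from transgenic T. cruzi replicating inside host cells; inhibitors lower the luminescence signal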
A-375 [11] = assay: MITF: Counter assay: A375 proliferation Measured in Cell-Based System Using Plate Reader - 2084-03_Inhibitor_Dose_DryPowder_Activity. [Related pubchem assays (depositor defined):AID488944]; type: functional; conditions: Homo sapiens
[12] = NIH3T3 cell viability loss – ATP luminescence, mouse fibroblasts, counter-screen, dose response (AID 2010); type: functional, cell-based;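 note: cells exposed to compound for about 90 hours before reading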
[13] = blockers of HIV-1 envelope-mediated cell-cell fusion – cherry-pick, dose response (AID 652057); type: functional, cell-based
[14] = blockers of HIV-1 ZM109 envelope-driven cell-cell fusion – HeLa effector, CEM target cells, luciferase, cherry-pick, dose response (AID 652058); type: functional, cell-based;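 note: luciferase signal from HIV-1 Env mediated cell-cell fusion of effector and target cells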
[15] = viability loss in CEM21 cells – cell-based, CellTiter-Glo luminescence, cherry-picked, cytotoxicity control for viral fusion inhibitor project, dose response (AID 652042); type: functional;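 note: potency for signal decrease meaning cytotoxicity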
HEK293 [16] = assay: cells; conditions: Homo sapiens
[17] = HIV-1 AD8 envelope cell-cell fusion blockers – cherry-pick, dose response (AID 652062); type: functional, cell-based;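 note: luciferase signal from cell-cell fusion driven by HIV-1 clade B AD8 Env; potency is for inhibitors of fusion seen as a drop in luminescence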
HEK293 [18] = assay: cells; conditions: Homo sapiens; remark: listed apart in the source
[19] = off-target signal loss in HeLa-CEM21 co-culture – HeLa F-luc CTL cells, cherry-picked, counter-screen for HIV-1 Env fusion inhibitor project, dose response (AID 652040); type: functional, cell-based;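 note: potency for signal decrease marking cytotoxic or nonspecific inhibition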
Paired box protein Pax-8 = Paired box protein Pax-8 (Homo sapiens, UniProt Q06710); assay: PAX8 transcriptional activity inhibition in RMG-I – RMG-I cells, luciferase, cherry-pick, dose response (AID 687027); type: functional, cell-based;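 note: luciferase reporter driven by Pax8 target thyroperoxidase promoter measured by SteadyGlo luminescence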
Chain of Paired box protein Pax-8 (Q06710 whole entry): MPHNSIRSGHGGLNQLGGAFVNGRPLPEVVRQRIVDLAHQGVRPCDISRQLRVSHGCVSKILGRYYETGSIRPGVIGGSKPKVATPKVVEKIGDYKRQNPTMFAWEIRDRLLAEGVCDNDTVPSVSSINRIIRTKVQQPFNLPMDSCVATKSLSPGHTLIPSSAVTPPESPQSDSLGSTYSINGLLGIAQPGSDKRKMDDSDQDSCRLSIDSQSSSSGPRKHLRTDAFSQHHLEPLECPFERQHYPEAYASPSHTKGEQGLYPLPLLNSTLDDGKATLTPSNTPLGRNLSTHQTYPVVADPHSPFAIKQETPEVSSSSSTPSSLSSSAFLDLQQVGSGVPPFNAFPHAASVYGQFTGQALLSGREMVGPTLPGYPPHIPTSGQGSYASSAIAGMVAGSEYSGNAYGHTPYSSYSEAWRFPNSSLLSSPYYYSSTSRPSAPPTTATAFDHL

[20] = blockade of melanocortin 4 receptor signaling – cell-based, plate reader, cherry pick, counter-screen for LGR2 antagonist project, dose response (AID 743444); type: functional;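 note: transfected HEK 293 cells stimulated with alpha-MSH peptide; potency of inhibitors of the alpha-MSH evoked signal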
Jurkat = assay: blockers of NF-kB activation in T cells – Jurkat, luciferase reporter, luminescence, B- and T-cell, dose response (AID 489004); type: functional, cell-based; conditions: Homo sapiens;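 note: NF-kB luciferase reporter Jurkat cells stimulated with PMA plus ionomycin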
[21] = A549 cell cytotoxicity, dose response, cytotoxicity control, plate reader, cherry-pick, antagonist series (AID 743412); type: functional, cell-based
[22] = blockers of bursicon-stimulated LGR2 cAMP reporter – cell-based, HEK293, CRE-luciferase reporter, cherry pick, set 2, dose response (AID 743343); type: functional;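 note: transfected cells were stimulated with diluted bursicon conditioned medium after compound addition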
[23] = HEK-293T viability loss, compound-treated – cell-based, uHTS hits, cytotoxicity control for B/T-cell NF-kB inhibitor project, dose response (AID 489019); type: functional;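 note: IC50 reflects cytotoxicity as loss of cell viability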
[24] = toxicity toward HepG2 liver cells – cell-based, plate reader, cherry-pick, antagonist series, cytotoxicity control, dose response (AID 743416); type: functional
Galanin receptor type 3 = biological target: T2, Galanin receptor type 3 (Homo sapiens, UniProt O60755); assay: Fluorescence-based cell-based primary high throughput dose response assay to identify antagonists of the Galanin Receptor 3 (GalR3).; type: functional
T2 sequence (O60755 whole entry): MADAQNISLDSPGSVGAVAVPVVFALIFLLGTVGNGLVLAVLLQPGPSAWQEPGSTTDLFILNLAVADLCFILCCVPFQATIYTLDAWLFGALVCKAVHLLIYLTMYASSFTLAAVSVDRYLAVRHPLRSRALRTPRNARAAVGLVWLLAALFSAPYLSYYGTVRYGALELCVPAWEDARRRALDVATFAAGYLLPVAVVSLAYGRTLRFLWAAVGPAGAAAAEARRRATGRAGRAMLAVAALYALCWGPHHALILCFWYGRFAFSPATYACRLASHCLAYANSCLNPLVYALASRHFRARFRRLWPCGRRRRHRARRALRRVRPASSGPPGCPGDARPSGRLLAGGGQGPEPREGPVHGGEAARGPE

cells = type: functional, cell-based; conditions: HEK-CNG
[25] = luciferase reporter signal suppression in cells – H4 neuroglioma cells, luminescence, dose response (AID 1990); type: functional, cell-based
[26] = viability loss in HeLa cells – cytotoxicity control for MgcRacGAP inhibitor project, dose response (AID 624300); type: functional
[27] = alpha-synuclein stem-loop luciferase translation blockers – H4 neuroglioma cells, luminescence, confirmation (AID 1988); type: functional, cell-based
[28] = Luminescence Cell-Based Dose Response HTS to Identify Inhibitors of 5'UTR Stem-Loop Driven Prion Protein mRNA Translation in H4 Neuroglioblastoma Cells. [Related pubchem assays: 1827 (Project Summary), 1813 (Primary HTS)]; type: functional
[29] = biological target: T3, Rac GTPase-activating protein 1 (Homo sapiens, UniProt Q9H0H5); assay: blockers of MgcRacGAP-driven Rac1 GTP hydrolysis – biochemical, ADP Hunter fluorescence, primary and confirmatory, confirmation (AID 624330); type: functional
T3 sequence (Q9H0H5 whole entry): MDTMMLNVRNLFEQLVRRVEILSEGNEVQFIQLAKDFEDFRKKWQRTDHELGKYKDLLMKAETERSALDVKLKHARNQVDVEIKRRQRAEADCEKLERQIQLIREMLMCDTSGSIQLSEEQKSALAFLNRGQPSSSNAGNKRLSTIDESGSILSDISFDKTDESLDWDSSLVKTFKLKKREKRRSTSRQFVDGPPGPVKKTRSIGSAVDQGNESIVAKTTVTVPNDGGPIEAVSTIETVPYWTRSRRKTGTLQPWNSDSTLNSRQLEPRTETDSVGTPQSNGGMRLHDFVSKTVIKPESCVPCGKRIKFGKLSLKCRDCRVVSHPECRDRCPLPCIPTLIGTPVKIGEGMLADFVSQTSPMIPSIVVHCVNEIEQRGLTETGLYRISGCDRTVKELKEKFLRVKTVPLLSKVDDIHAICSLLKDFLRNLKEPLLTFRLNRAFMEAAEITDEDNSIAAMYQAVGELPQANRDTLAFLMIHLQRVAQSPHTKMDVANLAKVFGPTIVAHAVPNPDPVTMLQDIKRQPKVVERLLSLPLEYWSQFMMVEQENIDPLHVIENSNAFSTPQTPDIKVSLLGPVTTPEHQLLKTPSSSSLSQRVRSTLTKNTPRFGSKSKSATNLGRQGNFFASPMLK

O=C(c1ccc(F)cc1)C(CN1CCOCC1)c1ccccc1 (stereo not given)
IC50 [1]: 3.27 µM (active) | AC50 [2]: 19.4 µM (active) | AC50 [3]: 6.91 µM (active) | AC50 (A-375 [4]): > 35 µM (active) | IC50 [5]: 4.17 µM (active) | EC50 [6]: 2.42 µM (active) | EC50 [7]: 3.36 µM (active) | AC50 [8]: 5.96 µM (active) | AC50 [9]: 17.6 µM (active) | EC50 [10]: 4.06 µM (active) | AC50 (A-375 [11]): > 35 µM (active) | EC50 [12]: 10.9 µM (active)

COc1ccc(CCN2C(=O)c3[nH]nc(-c4ccccc4O)c3C2c2ccccc2)cc1OC (stereo not given)
AC50 [13]: 0.376 µM (active) | AC50 [14]: 0.625 µM (active) | AC50 [15]: 52.7 µM (active) | EC50 (HEK293 [16]): > 59.7 µM (inactive) | AC50 [17]: 0.621 µM (active) | EC50 (HEK293 [18]): > 59.7 µM (inactive) | AC50 [19]: 0.929 µM (active)

COc1ccc(C(=O)CN2C(=O)c3ccccc3S2(=O)=O)cc1
AC50 [13]: 1.07 µM (active) | AC50 [14]: 10.7 µM (active) | AC50 (Paired box protein Pax-8): 3.53 µM (active) | AC50 [20]: 0.691 µM (active) | IC50 (Jurkat): 1.08 µM (active) | AC50 [21]: > 52 µM (inactive) | AC50 [17]: 2.54 µM (active) | AC50 [22]: 0.675 µM (active) | IC50 [23]: > 80 µM (inactive) | AC50 [19]: 2.16 µM (active) | AC50 [24]: > 52 µM (inactive)

CC(=O)c1cn(Cc2ccccc2C#N)c2ccccc12
IC50 [1]: 0.64 µM (active) | AC50 [2]: 2.2 µM (active) | AC50 [3]: 4.28 µM (active) | IC50 [5]: 1.01 µM (active) | IC50 (Galanin receptor type 3): 3.07 µM (active) | IC50 (Jurkat): 30 µM (inactive) | AC50 [9]: 0.527 µM (active) | EC50 (cells): > 29.9 µM (inactive) | IC50 [23]: > 80 µM (inactive)

COc1ccc(OC)c(-c2cc(C(=O)Nc3c(C)nn(Cc4ccccc4)c3C)no2)c1
EC50 (HEK293 [16]): > 59.6 µM (inactive) | EC50 (HEK293 [18]): > 59.6 µM (inactive)

COc1ccc(CNc2ncc(-c3ccc(F)cc3)n2C)c2ccccc12
EC50 [25]: 10 µM (active) | IC50 (Jurkat): 1.97 µM (active) | CC50 [26]: 100 µM (active) | EC50 [27]: 1.22 µM (active) | EC50 [28]: 6.58 µM (active) | IC50 [23]: > 80 µM (inactive) | IC50 [29]: 62.6 µM (active)

CC1CCN(Cc2nc(-c3ccc(Cl)cc3)no2)CC1
AC50 (A-375 [4]): > 35 µM (active) | AC50 [8]: 7.62 µM (active) | AC50 (A-375 [11]): > 35 µM (active)

Cc1ccc(-c2nc(C#N)c(NCc3ccco3)o2)cc1
AC50 (A-375 [4]): > 35 µM (active) | AC50 (A-375 [11]): > 35 µM (active)

CCCCn1c(SCc2ccc(Cl)cc2)nc2c1c(=O)[nH]c(=O)n2C
EC50 [25]: 15.8 µM (active) | EC50 [27]: 17 µM (active) | EC50 (HEK293 [16]): > 59.6 µM (inactive) | EC50 (HEK293 [18]): > 59.6 µM (inactive) | EC50 [28]: 16.2 µM (active)

CCOC(=O)[C@@H](C)N(Cc1ccc(OC)cc1)S(=O)(=O)N(Cc1ccccc1)[C@H](C(=O)OC)C(C)C
EC50 (HEK293 [16]): > 59.7 µM (inactive) | EC50 (HEK293 [18]): > 59.7 µM (inactive)
